By pIC50 is commonly meant the negative decadic logarithm of the IC50, by convention in mol/L. A lower pIC50 goes with a high IC50.

Structures are written as SMILES. pIC50: −log10 of the molar value.

This experiment deals with Integrin alpha-V/beta-3 (Homo sapiens, UniProt P05106+P06756). In words: Inhibition of biotinylated vitronectin binding to human alphaVbeta3 integrin after 3 hrs by ELISA. It counts as protein-complex assay. On the technique in general: An ELISA detects its analyte on a solid surface through an enzyme-linked reagent.
Sequence of Integrin alpha-V/beta-3 (P05106 27-788 limits assumed): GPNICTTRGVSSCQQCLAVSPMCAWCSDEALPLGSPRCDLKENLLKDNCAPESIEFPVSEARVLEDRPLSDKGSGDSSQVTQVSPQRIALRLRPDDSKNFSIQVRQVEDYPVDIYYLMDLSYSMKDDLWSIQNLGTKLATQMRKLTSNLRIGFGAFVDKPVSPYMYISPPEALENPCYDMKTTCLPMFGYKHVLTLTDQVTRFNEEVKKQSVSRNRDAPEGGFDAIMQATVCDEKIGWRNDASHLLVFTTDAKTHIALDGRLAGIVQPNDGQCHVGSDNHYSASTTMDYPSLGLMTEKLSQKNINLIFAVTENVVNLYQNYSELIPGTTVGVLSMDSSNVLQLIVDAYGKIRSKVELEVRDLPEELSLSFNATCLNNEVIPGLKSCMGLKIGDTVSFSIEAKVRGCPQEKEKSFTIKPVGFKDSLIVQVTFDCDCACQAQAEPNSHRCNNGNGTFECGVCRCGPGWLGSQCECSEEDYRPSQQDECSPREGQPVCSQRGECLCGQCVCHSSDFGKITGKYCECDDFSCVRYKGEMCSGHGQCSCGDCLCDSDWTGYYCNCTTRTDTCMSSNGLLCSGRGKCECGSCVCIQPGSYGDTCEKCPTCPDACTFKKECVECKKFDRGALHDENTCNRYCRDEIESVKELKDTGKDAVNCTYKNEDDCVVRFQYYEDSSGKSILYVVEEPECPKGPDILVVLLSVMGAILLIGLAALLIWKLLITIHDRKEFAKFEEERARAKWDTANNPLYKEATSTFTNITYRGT
Sequence of Integrin alpha-V/beta-3 (P06756 31-889 limits assumed): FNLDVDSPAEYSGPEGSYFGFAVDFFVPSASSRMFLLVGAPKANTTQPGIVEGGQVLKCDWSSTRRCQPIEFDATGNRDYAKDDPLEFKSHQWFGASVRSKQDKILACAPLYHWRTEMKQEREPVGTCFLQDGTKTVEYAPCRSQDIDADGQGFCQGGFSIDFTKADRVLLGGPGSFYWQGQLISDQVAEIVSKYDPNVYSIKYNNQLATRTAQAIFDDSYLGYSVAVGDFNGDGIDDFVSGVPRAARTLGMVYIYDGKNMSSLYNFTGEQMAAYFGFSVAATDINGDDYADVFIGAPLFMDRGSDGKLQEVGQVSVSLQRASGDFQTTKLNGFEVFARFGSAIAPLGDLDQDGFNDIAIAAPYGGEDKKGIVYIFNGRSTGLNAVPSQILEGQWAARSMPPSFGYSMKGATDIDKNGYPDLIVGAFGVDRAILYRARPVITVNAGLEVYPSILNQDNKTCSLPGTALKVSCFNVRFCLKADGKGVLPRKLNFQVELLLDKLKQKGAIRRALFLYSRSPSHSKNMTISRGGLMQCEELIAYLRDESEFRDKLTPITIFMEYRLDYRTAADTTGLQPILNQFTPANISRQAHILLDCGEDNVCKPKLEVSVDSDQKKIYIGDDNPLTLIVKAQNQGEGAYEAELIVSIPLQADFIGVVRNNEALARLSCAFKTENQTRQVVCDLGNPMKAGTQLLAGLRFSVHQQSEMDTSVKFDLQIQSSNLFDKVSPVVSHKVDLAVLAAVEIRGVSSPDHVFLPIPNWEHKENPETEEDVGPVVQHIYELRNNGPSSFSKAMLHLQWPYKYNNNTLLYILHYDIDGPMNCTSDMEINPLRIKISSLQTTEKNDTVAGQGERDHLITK
Sequence of Integrin alpha-V/beta-3 (P06756 891-1048 limits assumed): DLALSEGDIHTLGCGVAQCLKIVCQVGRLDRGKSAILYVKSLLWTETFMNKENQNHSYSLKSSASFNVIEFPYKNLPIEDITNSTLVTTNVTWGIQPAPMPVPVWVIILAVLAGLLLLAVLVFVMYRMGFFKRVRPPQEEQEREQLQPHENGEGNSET
In turn, `CC(C)(CNC(=O)OCCOCCOCCOCCOCCOCCOCCOCCOC(=O)NCC(C)(C)COC(=O)NCCS(=O)(=O)N[C@@H](CNC(=O)c1ccc(OCCN=C2NCCCN2)cc1)C(=O)O)COC(=O)NCCS(=O)(=O)N[C@@H](CNC(=O)c1ccc(OCCN=C2NCCCN2)cc1)C(=O)O` showed a negative logarithm of the IC50 (pIC50) of 9.49.
Compound `NCCS(=O)(=O)N[C@@H](CNC(=O)c1ccc(OCCNC2=NCCCN2)cc1)C(=O)O` gave a pIC50 of 7.65.
To `CC(C)(CN)COC(=O)NCCS(=O)(=O)N[C@@H](CNC(=O)c1ccc(OCCNC2=NCCCN2)cc1)C(=O)O` belongs 8.68.

These data come from ChEMBL document CHEMBL1268939, “Synthesis and evaluation of bivalent, peptidomimetic antagonists of the αvβ3 integrins” (Bioorg Med Chem Lett, 2010).
